In US20260315461A1, “NEW 5H-PYRROLO[3,2-B:5,4-C']DIPYRIDINE DERIVATIVES AND 6,7,8,9-TETRAHYDRO-5H-PYRROLO[3,2-B:5,4-C']DIPYRIDINE USEFUL IN THE TREATMENT OF CANCER” (INSTITUT REGIONAL DU CANCER DE MONTPELLIER, priority 2023, published 2026):
Counter-ions that a name gives are not always drawn.

Key:
Chromatin-MDM2 = target: T1, Chromatin-MDM2 (Homo sapiens, UniProt Q00987); assay: MDM2 degradation by western blot and immunofluorescence, chromatin-bound MDM2 (IB111 cells dependent on C-MDM2); format: cell-based; conditions: IB111 (presence of C-MDM2), degradation efficacy; for Dmax: human
T1 construct: endogenous in cells; host or cells: IB111
T1 sequence (Q00987 whole entry): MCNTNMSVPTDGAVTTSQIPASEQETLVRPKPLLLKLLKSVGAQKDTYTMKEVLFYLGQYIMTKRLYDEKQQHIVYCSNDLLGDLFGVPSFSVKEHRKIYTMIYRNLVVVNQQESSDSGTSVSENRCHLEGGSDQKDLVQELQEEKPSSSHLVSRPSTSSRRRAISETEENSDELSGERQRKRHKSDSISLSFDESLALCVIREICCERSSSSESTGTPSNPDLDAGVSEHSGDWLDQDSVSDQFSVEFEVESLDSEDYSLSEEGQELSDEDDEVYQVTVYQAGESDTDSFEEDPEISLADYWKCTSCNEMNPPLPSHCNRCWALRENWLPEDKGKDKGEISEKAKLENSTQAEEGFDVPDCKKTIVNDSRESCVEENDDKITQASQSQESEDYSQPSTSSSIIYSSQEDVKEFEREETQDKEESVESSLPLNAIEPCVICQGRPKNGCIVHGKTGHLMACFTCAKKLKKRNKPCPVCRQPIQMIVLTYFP
Method: (§1) MDM2 degradation is measured by western blot and immunofluorescence.
(§2) Cells were seeded in 6-well plates (Sarsted) in complete DMEM medium as to obtain triplicates for each condition (500 000 cells/well). After 24 hours, the compounds were added to the cells. Then, 18 hours later cells were collected for western blotting or immunofluorescence. • Western Blot: Cells were collected in Laemmli buffer, boiled and analyzed in 8% acrylamide gel. • Immunofluorescence: Cancer cells were fixed with paraformaldehyde (PFA) 4% for 15 minutes then permeabilized for 15 minutes at RT with phosphate-buffered saline (PBS) Triton 0.1% and blocked with Phosphate buffered saline-[…] (PBS-BSA) 0.3% for 1 hour at RT before overnight incubation at 4° C. with an anti-mouse monoclonal antibody against MDM2 (MABE340 Millipore). Immunodetection was performed using an Alexa 488-conjugated anti-mouse IgG antibody (Thermo Fisher) for 45 minutes at RT. Cover glasses were mounted with Mowiol (Biovalley) and DAPI (Sigma) before analysis on a Zeiss apotome.

Cytoplasmic-MDM2 = target: T2, Cytoplasmic-MDM2 (Homo sapiens, UniProt Q00987); assay: MDM2 degradation by western blot and immunofluorescence, cytoplasmic MDM2 (Hpac/ZR75.1 cells, absence of C-MDM2); format: cell-based; conditions: Hpac/ZR75.1 (absence of C-MDM2), degradation efficacy; for Dmax: human
T2 construct: endogenous in cells; host or cells: Hpac/ZR75.1
T2 sequence (Q00987 whole entry): as above
Method: as §1, §2

IB111 cells = assay: Cell survival, Sulforhodamine B assay (SRB assay), cancer cells exhibiting recruitment of MDM2 to chromatin; format: cell-based
Method: (§3) Cell survival after MDM2 inhibitor treatment (IC50) was determined using the Sulforhodamine B assay (SRB assay).
(§4) Cells were seeded in 96-well plates (Sarsted) in complete DMEM medium as to obtain triplicates for each condition (5 000 cells/well). After 24 hours, serial dilutions of the indicated compounds were added to the cells. Then 48 hours later, cells were fixed by adding a 10% Trichloroacetic acid solution and stained with a 0,4% SRB solution in 1% acetic acid. Fixed SRB was finally dissolved in 10 mM Tris-HCl solution and 560 nm absorbance was read using a PHERAstar FSX plate reader.

Hpac/ZR75.1 cells = assay: Cell survival, Sulforhodamine B assay (SRB assay), cancer cells not exhibiting recruitment of MDM2 to chromatin; format: cell-based
Method: as §3, §4

MDM2 protein = conditions: WO2016/049453 and Wang et al. 2014; cited from earlier work
MDM2-p53 interaction = conditions: WO2016/049453 and Wang et al. 2014; cited from earlier work
[1] = system: p53 wild type, p53 mutant and p53 null cancer cells; conditions: cited from earlier work
liposarcoma cells IB111 = assay: In vivo anti-tumor efficacy in nude mice engrafted with liposarcoma cells IB111; conditions: 20 mg/kg i.p. daily for 3 weeks, from tumor 100 mm^3
Method: In order to support the in vitro results, in vivo evaluation of the anti-tumor efficacy was performed on compound (4) according to the present invention having evidenced the antitumoral activity in examples 9 and 10 above.
10 mice per group were engrafted with liposarcoma cells IB111. Mice were housed in a pathogen-free barrier facility in accordance with the regional ethics committee for animal [COMPOUND LEFT OUT] (n° CEEA-LR-12067). When tumor reached 100 mm^3, the compound of formula (I) was administered by intra peritoneal i.p. injection at the dose of 20 mg/kg daily for 3 weeks.

Dmax (Chromatin-MDM2) [%] | Dmax (Cytoplasmic-MDM2) [%] | SMILES | efficacy on cancer cells not exhibiting recruitment of MDM2 to chromatin (cell survival) (Hpac/ZR75.1 cells) | Chromatin-MDM2 degradation (Chromatin-MDM2) | Cytoplasmic-MDM2 degradation (Cytoplasmic-MDM2) | other results
≥ 80 | < 25 | c1ccc2c(-c3nccc4c3[nH]c3ccc(OC5CC5)nc34)cccc2c1 [Compound 24, 2-cyclopropoxy-6-(naphthalen-1-yl)-5H-pyrrolo[3,2-b:5,4-c′]dipyridine] | not efficient | – | – | IC50 (IB111 cells): < 500 nM
40 to 80 | < 25 | COc1ccc2[nH]c3c(-c4ccc(F)c5ccccc45)nccc3c2n1 [Compound 15, 6-(4-fluoronaphthalen-1-yl)-2-methoxy-5H-pyrrolo[3,2-b:5,4-c′]dipyridine] | not efficient | – | – | –
40 to 80 | < 25 | COc1ccc2[nH]c3c(-c4cc(F)cc5ccccc45)nccc3c2n1.Cl [Compound 20, 6-(3-fluoronaphthalen-1-yl)-2-methoxy-5H-pyrrolo[3,2-b:5,4-c′]dipyridine hydrochloride] | not efficient | – | – | IC50 (IB111 cells): < 500 nM
25 to 40 | < 25 | Clc1ccc2[nH]c3c(-c4cccc5ccccc45)nccc3c2n1 [Compound 18, 2-chloro-6-(naphthalen-1-yl)-5H-pyrrolo[3,2-b:5,4-c′]dipyridine] | – | – | – | –
25 to 40 | < 25 | COc1ccc2[nH]c3c(-c4cccc5c(F)cccc45)nccc3c2n1 [Compound 21, 6-(5-fluoronaphthalen-1-yl)-2-methoxy-5H-pyrrolo[3,2-b:5,4-c′]dipyridine] | – | – | – | –
≥ 80 | < 25 | COc1ccc2[nH]c3c(-c4cccc5c4CCCC5)nccc3c2n1 [Compound 14, 2-methoxy-6-(5,6,7,8-tetrahydronaphthalen-1-yl)-5H-pyrrolo[3,2-b:5,4-c′]dipyridine] | not efficient | – | – | –
25 to 40 | < 25 | COc1ccc2[nH]c3c(-c4ccnc5nccnc45)nccc3c2n1 [Compound 3, 2-methoxy-6-(pyrido[2,3-b]pyrazin-8-yl)-5H-pyrrolo[3,2-b:5,4-c′]dipyridine] | – | – | – | –
25 to 40 | < 25 | COc1ccc2[nH]c3c(-c4ccnc5ccccc45)nccc3c2n1 [Compound 6, 2-methoxy-6-(quinolin-4-yl)-5H-pyrrolo[3,2-b:5,4-c′]dipyridine] | – | – | – | –

Second part, the compound before the results:

SMILES | Dmax (Chromatin-MDM2) [%] | Dmax (Cytoplasmic-MDM2) [%] | efficacy on cancer cells not exhibiting recruitment of MDM2 to chromatin (cell survival) (Hpac/ZR75.1 cells) | Chromatin-MDM2 degradation (Chromatin-MDM2) | Cytoplasmic-MDM2 degradation (Cytoplasmic-MDM2) | other results
COc1ccc2[nH]c3c(-c4cccc5ccccc45)nccc3c2n1 [Compound 1, 2-methoxy-6-(naphthalen-1-yl)-5H-pyrrolo[3,2-b:5,4-c′]dipyridine] | – | – | not efficient | +++ (+++≥80%) | – | –
COc1ccc2[nH]c3c(-c4cccc5ccccc45)nccc3c2n1.O=C(O)CC(O)(CC(=O)O)C(=O)O [Compound 11, 2-methoxy-6-(naphthalen-1-yl)-5H-pyrrolo[3,2-b:5,4-c′]dipyridine 2-hydroxypropane-1,2,3-tricarboxylate] | – | < 25 | not efficient | +++ (+++≥80%) | – | –
COc1ccc2[nH]c3c(-c4ccc(F)c5ccccc45)nccc3c2n1.Cl [Compound 17, 6-(4-fluoronaphthalen-1-yl)-2-methoxy-5H-pyrrolo[3,2-b:5,4-c′]dipyridine hydrochloride] | – | – | – | – | − (<25%: no degradation: indicated“−” in the table) | –
COc1ccc2[nH]c3c(-c4cccc5ccccc45)nccc3c2c1 [SP-141] | – | – | – | – | – | binding to MDM2 protein (MDM2 protein): directly binding to MDM2 protein; inhibition of the MDM2-p53 interaction (MDM2-p53 interaction): inhibiting the MDM2-p53 interaction; anticancer activity [1]: able to exert anticancer activity in p53 wild type, p53 mutant and p53 null cancer cells
COc1ccc2[nH]c3c(-c4cccc5c(F)cccc45)nccc3c2n1.Cl [Compound 22, 6-(5-fluoronaphthalen-1-yl)-2-methoxy-5H-pyrrolo[3,2-b:5,4-c′]dipyridine hydrochloride] | – | – | – | + (25%≤+<40%) | − (<25%: no degradation: indicated“−” in the table) | –
COc1ccc2[nH]c3c(-c4cccc5ccccc45)nccc3c2n1.O=C(O)/C=C/C(=O)O [Compound 10, 2-methoxy-6-(naphthalen-1-yl)-5H-pyrrolo[3,2-b:5,4-c′]dipyridine fumarate] | – | – | not efficient | +++ (+++≥80%) | − (<25%: no degradation: indicated“−” in the table) | –
Cl.c1ccc2c(-c3nccc4c3[nH]c3ccc(OC5CC5)nc34)cccc2c1 [Compound 25, 2-cyclopropoxy-6-(naphthalen-1-yl)-5H-pyrrolo[3,2-b:5,4-c′]dipyridine hydrochloride] | – | – | not efficient | +++ (+++≥80%) | − (<25%: no degradation: indicated“−” in the table) | –
COc1ccc2[nH]c3c(-c4cccc5ccccc45)nccc3c2n1.O=P(O)(O)O [Compound 12, 2-methoxy-6-(naphthalen-1-yl)-5H-pyrrolo[3,2-b:5,4-c′]dipyridine phosphate] | – | – | not efficient | – | − (<25%: no degradation: indicated“−” in the table) | –
COc1ccc2[nH]c3c(-c4cccc5c4CCCC5)nccc3c2n1.Cl [Compound 16, 2-methoxy-6-(5,6,7,8-tetrahydronaphthalen-1-yl)-5H-pyrrolo[3,2-b:5,4-c′]dipyridine hydrochloride] | – | – | not efficient | +++ (+++≥80%) | − (<25%: no degradation: indicated“−” in the table) | –
Cl.Clc1ccc2[nH]c3c(-c4cccc5ccccc45)nccc3c2n1 [Compound 19, 2-chloro-6-(naphthalen-1-yl)-5H-pyrrolo[3,2-b:5,4-c′]dipyridine hydrochloride] | – | – | not efficient | ++ (40%≤++<80%) | − (<25%: no degradation: indicated“−” in the table) | IC50 (IB111 cells): < 500 nM
COc1ccc2[nH]c3c(-c4cccc5ccccc45)nccc3c2n1 [Compound 13, 2-methoxy-6-(naphthalen-1-yl)-5H-pyrrolo[3,2-b:5,4-c′]dipyridine sulfate] | – | – | – | – | − (<25%: no degradation: indicated“−” in the table) | Chromatin-MDM2 degradation (Chromatin-MDM2; sulfate): ++ (40%≤++<80%)
COc1ccc2[nH]c3c(-c4cccc5ccccc45)nccc3c2n1.Cl [Compound 4, 2-methoxy-6-(naphthalen-1-yl)-5H-pyrrolo[3,2-b:5,4-c′]dipyridine hydrochloride] | – | – | not efficient | +++ (+++≥80%) | − (<25%: no degradation: indicated“−” in the table) | tumor reduction (liposarcoma cells IB111): greater than 75%
COc1ccc2[nH]c3c(-c4cccc5cccc(F)c45)nccc3c2n1 [Compound 23, 6-(8-fluoronaphthalen-1-yl)-2-methoxy-5H-pyrrolo[3,2-b:5,4-c′]dipyridine hydrochloride] | 25 to 40 | < 25 | – | – | – | –
